Assay results from patent US8163907B2, “Dihydropyridine calcium antagonist compounds, preparation methods, and medical uses thereof” (Cosunter Pharmaceutical Company, priority 2008, dated 2012).
Structures can show the parent of a compound that is named as a salt.

Tested on: isolated rat's thoracic aorta ring
Assay: Contraction of an isolated rat's thoracic aorta ring caused by KCl (vascular relaxation)
Type: cell-based
Details: 80 mmol/L KCl, n=6; for IC50: isolated rat thoracic aorta ring with complete endodermis, read-out: IC50, inhibition of contraction of a vascular ring with complete endodermis caused by KCl
From the text: The effect of compounds of the present invention to the contraction of an isolated rat's thoracic aorta ring caused by KCl is described as follows:
The present invention synthesizes 21 new DHP compounds, and some of the compounds are selected for performing pharmacological tests. With reference to Comparison of vasodilatation effect between quercetin and rutin in the isolated rat thoracic aorta authored by ZHOU Xin-mei, YAO Hui, XIA Man-li, et al, and published in Journal of Zhejiang University: Medical Sciences, 2006, 35(1), 29-33 for an embodiment.
A male SD rat, 240-260 g, supplied by Institute of Laboratory Animal Breeding and Reproduction, Qing Long Shan of Jiang Ning. Certificate of Quality No.: SCXK (So) 2002-0018.
NaCl:118.3 mmol/L, KCl:4.7 mmol/L, CaCl2: 2.5 mmol/L, MgSO4.7H2O:1.2 mmol/L, KH2PO4:1.2 mmol/L, NaHCO3:25 mmol/L, and glucose:11.1 mmol/L.
Hit a male rat at its head until it faints. Quickly remove the thoracic aorta, and put it into a K-H solution passed with a mixed gas having 95% O2+5% CO2. Carefully remove connective tissues around the thoracic aorta and cut the blood vessel into a vascular ring of 3 mm wide. Avoid any excessive pulling to prevent damages to the endodermis. Hang the vascular ring into a bathing trough containing 30 ml of K-H liquid, and keep passing the mixed gas of 95% O2+5% CO2, and maintain the temperature at 37±0.5[…]. Adjust the rest tension to 2.0 g. Keep it in equilibrium for 2 hrs, and change the liquid once every 15 min.
Inspection of the activity of the endodermis of the blood vessel: After the thoracic aorta ring is stable, change the liquid once, and add 1 μmol/L of NA into the bathing trough. After the contraction has reached the peak value for 15 min., add 1 μmol/L of Ach. If the expected contraction of the vascular relaxation is greater than 60% after Ach is added, then the endodermis is considered to be complete, or else the endodermis will be damaged.
A thoracic aorta ring with a complete endodermis is selected for conducting the experiment. After the changed liquid is stable, Add 80 mmol/L KCl to induce the maximum contraction amplitude, sequentially accumulate the medications, such that the medicine concentrations are 0.05 μmol/L, 0.1 μmol/L, 0.5 μmol/L, 1 μmol/L, 2 μmol/L, 4 μmol/L, and 10 μmol/L respectively. Record the change of tensions. The vascular relaxation level is indicated by the inhibition rate. In other words, KCl induces a difference of values between the maximum tension of the contraction and the vascular tension after medicines with different concentrations are added. The ratio of differences of the values to the maximum contraction amplitude induced by KCl reflects the level of vascular relaxation. The sample size of the arota rings for each medicine group is 6. In other words, the experiment is performed repeatedly for 6 times.

[1] = Rattus norvegicus, 0.1 μmol/L, x±S, read-out: Inhibition Rate (%)
[2] = Rattus norvegicus, 0.5 μmol/L, x±S, read-out: Inhibition Rate (%)
[3] = Rattus norvegicus, 1 μmol/L, x±S, read-out: Inhibition Rate (%)
[4] = Rattus norvegicus, 2 μmol/L, x±S, read-out: Inhibition Rate (%)
[5] = Rattus norvegicus, 4 μmol/L, x±S, read-out: Inhibition Rate (%)

Row | Molecule | Inhibition Rate (%) (0.1 μmol/L, x±S) | Inhibition Rate (%) (0.5 μmol/L, x±S) | Inhibition Rate (%) (1 μmol/L, x±S) | Inhibition Rate (%) (2 μmol/L, x±S) | Inhibition Rate (%) (4 μmol/L, x±S) | Inhibition Rate (%) (10 μmol/L, x±S) | IC50 | inhibition at 0.1 µM [1] | inhibition at 0.5 µM [2] | inhibition at 1 µM [3] | inhibition at 2 µM [4] | inhibition at 4 µM [5] | inhibition at 10 µM (Rattus norvegicus, 10 μmol/L, x±S, read-out: Inhibition Rate (%)) | inhibition at 0.05 µM (Rattus norvegicus, 0.05 μmol/L, x±S, read-out: Inhibition Rate (%))
1 | Levamlodipine Besylate [reference compound] | 4.5 ± 0.6% | 18.4 ± 2.6% | 37.7 ± 3.6% | 46.8 ± 4.1% | 69.0 ± 5.9% | 84.6 ± 6.1% | 4100 nM | – | – | – | – | – | – | –
2 | COC(=O)C1=C(C)NC(C)=C(C(=O)OCCCN2CCN(CC(O)COc3ccccc3OC)CC2)C1c1cccc([N+](=O)[O-])c1.Cl (stereo not drawn) [II2, 1,4-dihydro-2,6-dimethyl-4-(3-nitrophenyl)-3,5-pyridinecarboxylic acid methyl ester3-(N-4-(3-(2-methoxyphenoxy)-2-hydroxpropyl)piperazinyl)propyl ester hydrochloride] | 11.0 ± 1.5% | 32.2 ± 3.0% | 50.7 ± 5.7% | 65.2 ± 4.2% | 93.4 ± 3.1% | 101.2 ± 3.2% | 800 nM | – | – | – | – | – | – | –
3 | COC(=O)C1=C(C)NC(C)=C(C(=O)OCCCN2CCN(CCOc3ccccc3OC)CC2)C1c1cccc([N+](=O)[O-])c1 (stereo not drawn) [Compound I4, 1,4-dihydro-2,6-dimethyl-4-(3-nitrophenyl)-3,5-pyridinecarboxylic acid methyl ester 3-(N-4-(2-(2-methoxyphenoxy)ethyl)piperazinyl)propyl ester hydrochloride] | – | – | – | – | – | – | 2000 nM | 13.2 ± 1.3% | 20.5 ± 2.2% | 33.8 ± 2.8% | 59.4 ± 4% | 62.4 ± 4.8% | 72 ± 4.7% | –
4 | COC(=O)C1=C(C)NC(C)=C(C(=O)OCCN2CCN(CCOc3ccccc3OC)CC2)C1c1cccc([N+](=O)[O-])c1 (stereo not drawn) [Compound I14, 1,4-dihydro-2,6-dimethyl-4-(3-nitrophenyl)-3,5-pyridinecarboxylic acid methyl ester2-(N-4-(2-(2-methoxyphenoxy)ethyl)piperazinyl)ethyl ester hydrochloride] | – | – | – | – | – | – | 200 nM | 35.7 ± 3% | 62.9 ± 6.8% | 81.7 ± 3.3% | 96.2 ± 4.5% | 101 ± 3.4% | – | 27.4 ± 3.4%
5 | COC(=O)C1=C(C)NC(C)=C(C(=O)OCCCCN2CCN(CCOc3ccccc3OC)CC2)C1c1cccc([N+](=O)[O-])c1.Cl (stereo not drawn) [Compound I5, 1,4-dihydro-2,6-dimethyl-4-(3-nitrophenyl)-3,5-pyridinecarboxylic acid methyl ester-4-(N-4-(2-(2-methoxyphenoxy)ethyl)piperazinyl)butyl ester hydrochloride] | 24.5 ± 3.2% | 47.9 ± 3.9% | 66.0 ± 4.0% | 75.0 ± 3.5% | 91.6 ± 3.2% | 100.1 ± 3.0% | 500 nM | – | – | – | – | – | – | –
6 | COC(=O)C1=C(C)NC(C)=C(C(=O)OCCN2CCN(CCOC(c3ccccc3)c3ccccc3)CC2)C1c1cccc([N+](=O)[O-])c1.Cl (stereo not drawn) [Compound I6, 1,4-dihydro-2,6-dimethyl-4-(3-nitrophenyl)-3,5-pyridinecarboxylic acid methyl ester2-(N-4-(diphenylmethoxyethyl)piperazinyl)ethyl ester hydrochloride] | 9.3 ± 1.0% | 20.5 ± 2.5% | 33.7 ± 2.4% | 49.7 ± 3.5% | 66.9 ± 3.6% | 79.0 ± 4.5% | 1900 nM | – | – | – | – | – | – | –
